Measured values from US20070122392A1, “Propagation of undifferentiated embryonic stem cells in hyaluronic acid hydrogel” (priority 2005, published 2007).

Columns and labels:
[1] = Hyaluronidase degradation of HA hydrogel and release of hESCs
Procedure: (§1) Cell-gel constructs were cultivated in hESC grwoth medium containing 100 ng/ml bFGF or MEF conditioned media as previously described^1 Briefly, hESCs growth medium was incubated on inactivated MEF for 24 hours and collected and filtrated. bFGF (4 ng/ml) was added before use. Constructs were incubated up to 40 days. To release encapsulated hESCs, HA constructs were incubated for 24 h in hESC growth medium containing 100, 500, 1000 or 2000 U/ml hyaluronidase (Sigma, St. Louis, Mo.). For re-culture, cells were collected, centrifuged, washed three times with PBS to remove any hydrogel residues, re-suspended in growth medium, and cultured on MEF coated dishes using standard methods^22,23. For EB formation, hESCs were cultivated in non-adherent Petri-dishes.

hESCs [2] = test: Long-term (24 hours) hyaluronidase treatment of hESC colonies; format: cell-based, human; settings: growth medium containing hyaluronidase at all concentrations
Procedure: as §1

hESCs [3] = test: Karyotyping analysis; format: cell-based, human; settings: hESCs on MEFs (H9 p22; H13 p25) treated with hyaluronidase 2000 U/ml for 24 h
Procedure: Karyotyping analysis. Cells were prepared and analyzed as previously described and recommended^30. Karyotyping analysis was performed by Dana Faber /Harvard Cancer Research Center, Cytogenetics Laboratory, Cambridge, Mass.

degradation of the HA hydrogel ([1]; 2000 U/ml hyaluronidase in growth medium): complete degradation | release of hESC colonies from the hydrogel ([1]; 2000 U/ml hyaluronidase in growth medium, after 24 hr): completely released | degradation of HA hydrogels ([1]; hyaluronidase concentrations of <1000 U/ml, 24 hr): only partial degradation
Substance: hyaluronidase
state of hydrogel and hESCs ([1]; 2000 U/ml hyaluronidase in growth medium, after 18 hr): small particles of hydrogels remained that trapped hESCs | hESC colony morphology and viability (hESCs [2]): preserved their normal morphology with no apparent loss of viability | karyotype (hESCs [3]): normal 46XX karyotyping
